From US12180193B2, “Accelerating fibrosarcoma protein degrading compounds and associated methods of use” (Arvinas Operations, Inc., priority 2020, dated 2024)

Assays:
BRAF G466V = target: T1, BRAF G466V (Homo sapiens, UniProt P15056, G466V); experiment: Cellular assay of target protein degradation, T-Rex 293 cells stably transfected with HA-BRAF G466V (HA immunofluorescence, high content imaging); type: cell-based; conditions: T-Rex 293 HA-BRAF G466V; for DC50: half maximal degradation, read-out: BRaf G466V DC50; for Dmax: maximum degradation observed
T1 construct: expressed in transfected cells
Outline: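 Doxycycline-induced (0.75 ng/mL) cells treated 24 h at 37 °C with compound from 30 nM to 3 pM (0.1% DMSO). After fixation and permeabilisation, HA-tagged BRAF G466V immunostained and quantified by high-content imaging. DC50 and Dmax (percent of control) derived.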

BRAF V600E = target: T2, BRAF V600E (Homo sapiens, UniProt P15056, V600E); experiment: Cellular assay of target protein degradation, T-Rex 293 cells stably transfected with HA-BRAF_V600E (HA immunofluorescence, high content imaging); type: cell-based; conditions: T-Rex 293 HA-BRAF V600E; for DC50: half maximal degradation, read-out: BRaf V600E DC50; for Dmax: maximum degradation observed
T2 construct: expressed in transfected cells
Outline: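 Doxycycline-induced (1 ng/mL) T-Rex 293 cells expressing HA-BRAF V600E treated 24 h at 37 °C with compound at 1 μM to 0.1 nM final in 0.1% DMSO. Remaining HA-tagged protein quantified by fixed-cell anti-HA immunofluorescence and high-content imaging; DC50 and Dmax (% of control) derived.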

T2 sequence (P15056 whole entry V600E): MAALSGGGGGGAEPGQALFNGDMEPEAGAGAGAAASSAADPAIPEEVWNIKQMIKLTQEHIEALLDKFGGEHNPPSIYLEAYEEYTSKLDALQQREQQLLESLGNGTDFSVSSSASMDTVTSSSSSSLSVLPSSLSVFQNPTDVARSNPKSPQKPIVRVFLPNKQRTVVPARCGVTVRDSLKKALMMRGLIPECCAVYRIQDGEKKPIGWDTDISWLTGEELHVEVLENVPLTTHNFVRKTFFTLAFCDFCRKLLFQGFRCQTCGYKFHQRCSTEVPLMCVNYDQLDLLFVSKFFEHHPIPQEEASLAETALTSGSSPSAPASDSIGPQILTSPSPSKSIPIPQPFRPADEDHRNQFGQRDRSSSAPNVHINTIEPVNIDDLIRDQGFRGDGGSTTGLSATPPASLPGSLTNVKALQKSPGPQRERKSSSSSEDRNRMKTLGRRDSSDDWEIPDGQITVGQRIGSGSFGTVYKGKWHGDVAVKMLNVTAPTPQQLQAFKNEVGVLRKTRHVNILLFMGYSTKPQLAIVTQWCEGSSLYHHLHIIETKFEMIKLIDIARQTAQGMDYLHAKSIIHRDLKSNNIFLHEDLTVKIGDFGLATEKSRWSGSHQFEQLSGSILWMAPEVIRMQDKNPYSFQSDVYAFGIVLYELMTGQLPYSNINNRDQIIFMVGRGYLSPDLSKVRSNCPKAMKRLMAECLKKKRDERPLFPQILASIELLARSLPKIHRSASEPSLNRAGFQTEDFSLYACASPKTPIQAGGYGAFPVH
T1 sequence (P15056 whole entry G466V): as the sequence (P15056 whole entry V600E) above, with G466V, E600V counted along it

| Compound | DC50 (BRAF G466V) | Dmax (BRAF G466V) | DC50 (BRAF V600E) | Dmax (BRAF V600E) |
| --- | --- | --- | --- | --- |
| O=C1CCC(N2Cc3cc(C4CCN(C[C@H](O)Cc5ccc(-c6cnc7[nH]cc(C(=O)c8c(F)ccc(NS(=O)(=O)N9CC[C@@H](F)C9)c8F)c7c6)cc5)CC4)ccc3C2=O)C(=O)N1 (stereo partly drawn) [Compound 110, (3R)-N-[3-(5-{4-[(2R)-3-{4-[2-(2,6-dioxopiperidin-3-yl)-1-oxo-2,3-dihydro-1H-isoindol-5-yl]piperidin-1-yl}-2-hydroxypropyl]phenyl}-1H-pyrrolo[2,3-b]pyridine-3-carbonyl)-2,4-difluorophenyl]-3-fluoropyrrolidine-1-sulfonamide] | 1 to 10 nM | > 70% | 50 to 500 nM | 35 to 70% |
| O=C1CCC(N2Cc3cc(N4CCC(CN5CC6(CCN(c7ccc(-c8cnc9[nH]cc(C(=O)c%10c(F)ccc(NS(=O)(=O)N%11CC[C@@H](F)C%11)c%10F)c9c8)cc7F)C6)C5)CC4)ccc3C2=O)C(=O)N1 (stereo partly drawn) [Compound 111, (3R)-N-[3-(5-{4-[2-({1-[2-(2,6-dioxopiperidin-3-yl)-1-oxo-2,3-dihydro-1H-isoindol-5-yl]piperidin-4-yl}methyl) 2,6-diazaspiro[3.4]octan-6-yl]-3-fluorophenyl}-1H-pyrrolo[2,3-b]pyridine-3-carbonyl)-2,4-difluorophenyl]-3-fluoropyrrolidine-1-sulfonamide] | 1 to 10 nM | 35 to 70% | < 5 nM | 35 to 70% |
| O=C1CCC(N2Cc3cc(CN4CCN(c5ccc(-c6cnc7[nH]cc(C(=O)c8c(F)ccc(NS(=O)(=O)N9CC[C@@H](F)C9)c8F)c7c6)cc5)C[C@H]4CO)ccc3C2=O)C(=O)N1 (stereo partly drawn) [Compound 112, (3R)-N-[3-(5-{4-[(3S)-4-{[2-(2,6-dioxopiperidin-3-yl)-1-oxo-2,3-dihydro-1H-isoindol-5-yl]methyl}-3-(hydroxymethyl)piperazin-1-yl]phenyl}-1H-pyrrolo [2,3-b]pyridine-3-carbonyl)-2,4-difluorophenyl]-3-fluoropyrrolidine-1-sulfonamide] | 10 to 30 nM | 35 to 70% | 50 to 500 nM | < 35% |

Other lines, results leading:

| DC50 (BRAF G466V) | Dmax (BRAF G466V) | DC50 (BRAF V600E) | Dmax (BRAF V600E) | Compound |
| --- | --- | --- | --- | --- |
| 1 to 10 nM | > 70% | 5 to 50 nM | 35 to 70% | O=C1CCC(N2Cc3cc(OCCCCN4CCN(c5ccc(-c6cnc7[nH]cc(C(=O)c8c(F)ccc(NS(=O)(=O)N9CC[C@@H](F)C9)c8F)c7c6)cc5F)CC4)ccc3C2=O)C(=O)N1 (stereo partly drawn) [Compound 113, (3R)-N-[3-(5-{4-[4-(4-{[2-(2,6-dioxopiperidin-3-yl)-1-oxo-2,3-dihydro-1H-isoindol-5-yl]oxy}butyl)piperazin-1-yl]-3-fluorophenyl}-1H-pyrrolo[2,3-b]pyridine-3-carbonyl)-2,4-difluorophenyl]-3-fluoropyrrolidine-1-sulfonamide] |
| 1 to 10 nM | > 70% | 5 to 50 nM | 35 to 70% | O=C1CCC(N2Cc3cc(N4CC5(CN(CCOc6ccc(-c7cnc8[nH]cc(C(=O)c9c(F)ccc(NS(=O)(=O)N%10CC[C@@H](F)C%10)c9F)c8c7)cc6F)C5)C4)ccc3C2=O)C(=O)N1 (stereo partly drawn) [Compound 114, (3R)-N-(3-{5-[4-(2-{6-[2-(2,6-dioxopiperidin-3-yl)-1-oxo-2,3-dihydro-1H-isoindol-5-yl]-2,6-diazaspiro[3.3]heptan-2-yl}ethoxy)-3-fluorophenyl]-1H-pyrrolo[2,3-b]pyridine-3-carbonyl}-2,4-difluorophenyl)-3-fluoropyrrolidine-1-sulfonamide] |
| 1 to 10 nM | 35 to 70% | 5 to 50 nM | < 35% | O=C1CCC(N2Cc3cc(N4CCN(c5cc(N6CCN(c7ccc(-c8cnc9[nH]cc(C(=O)c%10c(F)ccc(NS(=O)(=O)N%11CC[C@@H](F)C%11)c%10F)c9c8)cc7)CC6)ncn5)CC4)ccc3C2=O)C(=O)N1 (stereo partly drawn) [Compound 115, (3R)-N-[3-(5-{4-[4-(6-{4-[2-(2,6-dioxopiperidin-3-yl)-1-oxo-2,3-dihydro-1H-isoindol-5-yl]piperazin-1-yl}pyrimidin-4-yl)piperazin-1-yl]phenyl}-1H-pyrrolo[2,3-b]pyridine-3-carbonyl)-2,4-difluorophenyl]-3-fluoropyrrolidine-1-sulfonamide] |
